Measured values from patent US10421759B2, “Fused bicyclic compounds for the treatment of disease” (AKARNA THERAPEUTICS, LTD., priority 2015, dated 2019).

Experiments:
FXR = target: T1, FXR (Homo sapiens, UniProt Q96RI1); experiment: FXR Agonist Tranactivation Assay (luciferase reporter, CV-1 cells); assay type: cell-based; conditions: at 10 μM; CV-1 cells cotransfected with pCMV6-NR1H4 (FXR), pCMV6-RXRA and pEcREX7-TK-Luc; positive control 10 uM XL-335; 20 hours
T1 construct: expressed in transfected cells; host or cells: CV-1 cells, transient cotransfection
T1 sequence (Q96RI1 1-486): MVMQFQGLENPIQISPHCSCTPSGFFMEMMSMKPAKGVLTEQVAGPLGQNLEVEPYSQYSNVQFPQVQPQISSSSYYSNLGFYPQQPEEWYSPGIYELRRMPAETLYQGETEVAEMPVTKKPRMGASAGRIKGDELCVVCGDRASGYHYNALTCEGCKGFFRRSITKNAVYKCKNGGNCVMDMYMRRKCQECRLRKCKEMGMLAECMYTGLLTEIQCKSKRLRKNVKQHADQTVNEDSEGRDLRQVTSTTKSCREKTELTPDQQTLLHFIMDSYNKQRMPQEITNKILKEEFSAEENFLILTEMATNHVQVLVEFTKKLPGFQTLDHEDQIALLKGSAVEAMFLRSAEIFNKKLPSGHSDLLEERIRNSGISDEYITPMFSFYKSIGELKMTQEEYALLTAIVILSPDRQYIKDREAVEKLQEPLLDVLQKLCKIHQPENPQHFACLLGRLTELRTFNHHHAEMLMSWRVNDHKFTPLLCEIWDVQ
T1 sequence (P19793 1-462 partner): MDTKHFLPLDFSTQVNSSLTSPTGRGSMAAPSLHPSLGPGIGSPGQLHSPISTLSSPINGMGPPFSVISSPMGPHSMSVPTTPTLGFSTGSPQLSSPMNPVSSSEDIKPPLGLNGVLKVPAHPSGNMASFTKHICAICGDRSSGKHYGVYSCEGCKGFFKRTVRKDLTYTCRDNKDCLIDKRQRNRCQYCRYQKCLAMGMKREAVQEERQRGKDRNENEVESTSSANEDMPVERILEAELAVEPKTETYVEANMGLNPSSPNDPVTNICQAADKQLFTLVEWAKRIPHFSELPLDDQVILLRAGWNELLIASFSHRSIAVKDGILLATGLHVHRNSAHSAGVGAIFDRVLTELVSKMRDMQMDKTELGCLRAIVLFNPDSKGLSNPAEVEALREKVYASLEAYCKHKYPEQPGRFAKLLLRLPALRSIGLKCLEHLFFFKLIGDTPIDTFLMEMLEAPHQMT
Method: CV-1 cells were transiently cotransfected with pCMV6-NR1H4 (FXR), pCMV6-RXRA and reporter plasmid pEcREX7-TK-Luc. Five hours after transfection, cells were trypsinized and dispensed into 96-well plates at a concentration of 10,000 cells per well.
Compound Dilution and Addition: Starting from 3.33 mM of compound in DMSO solution a 10-point 3-fold serial dilution was made by diluting 5 μl of compound into 10 μl of DMSO. The serially diluted compound was then diluted 1:33 into DMEM. This medium was then diluted ten-fold into the culture medium with the cells (10 μl/well). All concentration points are assayed in duplicate. Plates were incubated at 37° C. for 20 hours.
Luciferase activity Readout: After the incubation 20 μl of culture medium were removed from each well and mixed with 50 μl of assay solution (Pierce™ Gaussia Luciferase Flash Assay Kit). The luminescence was measured immediately after addition of the Luc substrate with an Envision microplate reader.
Data Reduction and Analysis: The raw data was uploaded to CDD and dose-response curves were generated using the Levenberg-Marquardt algorithm integrated into CDD. As a positive control 10 uM XL-335 and as a negative control DMSO is included on each plate and used to normalize the data with the CDD built-in normalization function.

Mouse SHP = experiment: Gene Expression Assay (liver qPCR after p.o. dosing); assay type: in vivo; conditions: C57BL/6 mice, 10 mg/kg p.o., liver collected 4 hours post dosing
Method: C57BL/6 mice (3 per group) were dosed p.o. with 10 mg/kg of compound 20. Livers were collected at 4 hours post dosing and transferred into RNALater solution immediately. Tissues were stored at 4° C. until RNA isolation. RNA was isolated, quantified and amplified; qPCR was performed using SuperScript® III Platinum® SYBR®Green One-Step qRT-PCR Kit (Cat no. 11736-051). Primers used are as listed: Mouse Cyp7A1: For: (SEQ. ID NO: 1) […] Rev: (SEQ. ID NO: 2) AGTGGTGGCAAAATTCCCA; Mouse SHP: For: (SEQ. ID NO: 3) […] Rev: (SEQ. ID NO: 4) AGCCTCCTGTTGCAGGTGT; Mouse GAPDH: For: (SEQ. ID NO: 5) […] Rev: (SEQ. ID NO: 6) […].

Mouse Cyp7A1 = experiment: as above; assay type: in vivo; conditions: C57BL/6 mice, 10 mg/kg p.o., liver collected 4 hours post dosing
Method: C57BL/6 mice (3 per group) were dosed p.o. with 10 mg/kg of compound 20. Livers were collected at 4 hours post dosing and transferred into RNALater solution immediately. Tissues were stored at 4° C. until RNA isolation. RNA was isolated, quantified and amplified; qPCR was performed using SuperScript® III Platinum® SYBR®Green One-Step qRT-PCR Kit (Cat no. 11736-051). Primers used are as listed: Mouse Cyp7A1: For: (SEQ. ID NO: 1) [NT] Rev: (SEQ. ID NO: 2) [NT]; Mouse SHP: For: (SEQ. ID NO: 3) [NT] Rev: (SEQ. ID NO: 4) [NT]; Mouse GAPDH: For: (SEQ. ID NO: 5) [NT] Rev: (SEQ. ID NO: 6) [NT]

| activation compared to the positive control (FXR) | Avg. % mRNA induction, CYP7a (Mouse Cyp7A1) | Compound | Avg. % mRNA induction, SHP (Mouse SHP) |
| --- | --- | --- | --- |
| inactive |  | CC(C)OC(=O)C1=CN(C(=O)c2ccc(OCC[N+]3(C)CCOCC3)cc2)CC(C)(C)c2c(C(F)(F)F)n[nH]c21 [compound 13] |  |
| 86% | 57% | CCOC(=O)C1=CN(C(=O)N2CC[N+](C)(C)CC2)CC(C)(C)c2c1[nH]c1ccccc21.[I-] [compound 20, 4-(5-(ethoxycarbonyl)-1,1-dimethyl-1,2,3,6-tetrahydroazepino[4,5-b]indole-3-carbonyl)-1,1-dimethylpiperazin-1-ium iodide] | 266% |
